This is an account of results in US4841054A, “2,6-dimethyl-3,5-dimethoxycarbonyl-4-(5'-tri methylsilyl-2'-furyl)-1,4-dihydropyridine” (priority 1988, dated 1989).

Series [1] has as its system spontaneously hypertensive rats. As to the kind of experiment: Effect on arterial pressure in spontaneously hypertensive rats, single administration. In kind it is in vivo. The note with it: for hypotensive effect by the 6th hour, comparison in words: compound of the present invention vs Nifedipine.
The conditions of series [2]: literature, cited from earlier work.
In a further series the test system is white nondescript mice. As to the kind of experiment: in vivo. The note with it: for toxicity in words: conclusion from Table 2. As for the experimental part: (§1) The mean lethal dose (LD50) was determined by the Litchfield and Wilcoxon method.
A short description of a further series: in vivo. The note with it: mouse, in vivo, ip. The protocol: as §1
Series [3] deals with spontaneously hypertensive rats. As to the kind of experiment: Effect on heart rate in spontaneously hypertensive rats. Format: in vivo. The note with it: for effect on heart rate: 10 and 20 mg/kg, peroral, SHR. As for the experimental part:
(§2) In experiments on spontaneously hypertensive rats the compound according to the present invention upon a single administration (10 mg/kg in stomach) caused reduction of systolic arterial pressure. The maximum hypotensive effect (by 21 %) was observed by the 6-th hour after administration of the compound, after 24 hours the pressure was reduced by 17 % as compared to the initial value. A […] administration of the compound for 5 days in the dose of 10 mg/kg into the stomach caused the maximum reduction of the pressure (by 22 %) on the 6-th day, i.e., one day after discontinuation of administration of the compound. A reduced pressure was observed on the 3-rd day (by 10 %) after discontinuation of the administration.

The next series in a line: Solubility. Format: physicochemical.
Series [4] can be described thus: Stability by UV spectrum (solid in the light; alcoholic solution).
For series [5], the system named is spontaneously hypertensive rats. As to the kind of experiment: Effect on systolic arterial pressure in spontaneously hypertensive rats, administration for 5 days. In kind it is in vivo. The note with it: 10 mg/kg into the stomach for 5 days. The protocol: as §2
[6] abbreviates: 10 mg/kg, single administration in stomach.

“Also recorded” adds a separate entry of the source.

For `COC(=O)C1=C(C)NC(C)=C(C(=O)OC)C1c1ccco1` [Analog, 2,6-dimethyl-3,5-dimethoxycarbonyl-4-(2'-furyl)-1,4-dihydropyridine], the “Hypotensive effect, %, after 48 hrs” value in series [1] (10 mg/kg) is recorded as 0%. Besides, in series [1] (setting [6]), the “Hypotensive effect, %, after 1 hr” value came out at 12%; the “Hypotensive effect, %, after 6 hrs” value is listed as 7%; the “Hypotensive effect, %, after 24 hrs” value was 0%. Moreover, in series [1] (vs the compound of the present invention), the “hypotensive properties, comparison in words” value is “subtantially lower than those of the compound of the present invention”. In series [2] (vs Nifedipine), the “hypotensive activity compared with Nifedipine” value was “considerably lower than that of Nifedipine”. The toxicity in words entry in the series on white nondescript mice is given as “low toxicity”. This molecule displayed an LD50 at 240 h in the series “in vivo” of 2900 mg/kg.

Turning to `COC(=O)C1=C(C)NC(C)=C(C(=O)OC)C1c1ccccc1[N+](=O)[O-]` [Nifedipine, 2,6-dimethyl-3,5-dimethoxycarbonyl-4-(O-nitrophenyl)-1,4-dihydropyridine], the “Hypotensive effect, %, after 48 hrs” value in series [1] (10 mg/kg) is 0%. In series [1] (setting [6]), the “Hypotensive effect, %, after 1 hr” value is on record as 34%; the “Hypotensive effect, %, after 6 hrs” value is listed as 23%; the “Hypotensive effect, %, after 24 hrs” value was determined as 0%. Also, in series [1], the “hypotensive effect by the 6th hour, comparison in words” value was “same hypotensive effect” and the “hypotensive effect / systolic pressure 24 hours after administration, in words” value is recorded as “systolic pressure returned to the initial level”. Moreover, the “hypotensive effect by the 1st hour, comparison in words” value in series [1] (1 hour after administration, vs the compound of the present invention) is given as “superior to the compound of the present invention”. Moreover, in series [2], the “hypotensive and coronarodilating effects” value is “hypotensive and coronarodilating effects”. In series [3], the “effect on heart rate” value is recorded as “tachycardia”.

On to `COC(=O)C1=C(C)NC(C)=C(C(=O)OC)C1c1ccc([Si](C)(C)C)o1` [Of this invention, 2,6-dimethyl-3,5-dimethoxycarbonyl-4-(5'-trimethylsilyl-2'-furyl)-1,4-dihydropyridine], for which, in series [1] (setting [6]), the “Hypotensive effect, %, after 1 hr” value was 13%; the “Hypotensive effect, %, after 6 hrs” value was determined as 21%; the “Hypotensive effect, %, after 24 hrs” value is 17%. In series [1] (20 mg/kg), the “Hypotensive effect, %, after 6 hrs” value is 30%; the “Hypotensive effect, %, after 24 hrs” value worked out at 39%; the “Hypotensive effect, %, after 48 hrs” value is on record as 28%. In addition, in series [1], the “hypotensive effect by the 6th hour, comparison in words” value was “same hypotensive effect” and the “hypotensive effect / systolic pressure 24 hours after administration, in words” value was “still produced the hypotensive effect”. Further, in series [1] (vs Nifedipine and/or analog, listed as compound according to the present invention), the “duration of hypotensive effect, in words” value is “superior over Nifedipine as regards the duration of its effect; also recorded: more lasting hypotensive effect than the analog and Nifedipine”. Further, the “solubility in methanol, ethanol, chloroform, acetone” value in “Solubility” (methanol, ethanol, chloroform, acetone) is recorded as “well soluble”. Also, in “Solubility” (water), the solubility in water entry is “substantially insoluble”. Further, the “period during which UV spectrum remained unchanged in alcoholic solution” value in series [4] (alcoholic solution, 5×10^-5 mol) turned out to be 6 months. Besides, the “stability in the crystalline state and as solutions” value in series [4] (crystalline state and solutions) is “stable”. Further, the “UV spectrum upon storage of the solid in the light” value in series [4] (solid, in the light, within a year's period) is “does not change its UV spectrum within a year's period”. Moreover, the toxicity in words entry in the series on white nondescript mice is given as “low toxicity as compared to Nifedipine”. Besides, the “death of the mice” value in the series on white nondescript mice (doses of up to 1,000 mg/kg, intraperitoneal) is listed as “did not cause death of the mice”. The molecule further yielded an LD50 at 240 h in “in vivo” of over 1000 mg/kg. Further, the “reduced pressure on the 3rd day after discontinuation” value in series [5] (3rd day after discontinuation) is listed as 10%. In addition, the “maximum reduction of the pressure” value in series [5] (on the 6th day (one day after discontinuation)) was 22%. Moreover, in series [3], the “effect on heart rate” value is “either lowers the heart rate or does not change it”. Also, the “effect on heart rate, comparison in words” value in series [3] (vs Nifedipine) is listed as “less pronounced effect on the heart rate”.
